# Like-named read-outs stand apart in the source and are kept apart here. Non-standard residues stand in square brackets, D forms with d. Residues, ends and D or L forms follow the SMILES beside them. *: point of attachment. Dolaproine = CO[C@@H]([C@@H]1CCCN1)[C@@H](C)C(=O)O; Dil = CC[C@H](C)[C@H](NC)[C@@H](CC(=O)O)OC; X1 = C[C@@H](N*)[C@@H](O)c1ccccc1; NMeV = CN[C@H](C(=O)O)C(C)C
# Assays:
# [1] = test system: C4-2 cells; assay: In vitro cytotoxicity assay in tumor lines (CellTiter-Glo 2.0), C4-2; assay type: cell-based, human
# Method: (§1) To test the ability of anti-HER2 or anti-STEAP2 antibody drug conjugates (ADCs) of the present disclosure to kill human cell lines, an in vitro cytotoxicity assay was performed. In vitro cytotoxicity of the ADCs, isotype control ADCs, and reference free payloads were evaluated using the CellTiter-Glo 2.0 Assay Kit (Promega, Cat #g9243), in which the quantity of ATP present is used to determine the number of viable cells in culture.
# (§2) For the assay, Calu-3, SK-BR-3, NCI-H1975, C42, or C42/STEAP2 KO (knockout) cells were seeded at 1000 cells/well in poly-D-lysine coated white 96 well Biocoat plates (Corning #356693) in complete growth medium and grown overnight at 37° C. in 5% CO2. Three-fold serial dilutions of anti-HER2 ADCs or isotype control ADCs were prepared in dilution media (Optimem+0.1% BSA) and added to cells at final concentrations ranging from 100 nM to 0.015 nM (concentrations were corrected for the DAR (drug antibody ratio) and dosed based on the effective payload concentration). Three-fold serial dilutions of free payloads were prepared in 100% DMSO, transferred to fresh dilution media, and then added to the cells at a final constant DMSO concentration of 0.2% and final payload concentrations ranging from 100 nM to 0.015 nM. The last well in each dilution series (untreated wells) served as blank controls containing only the media (ADCs) or media plus 0.2% DMSO (payloads) and was plotted as a continuation of the 3-fold serial dilution. Six days later, 100 μL of CellTiter glo 2.0 was added to each well, plates were mixed for 2 minutes on an orbital shaker, and plates were incubated at room temperature for 10 minutes. Relative light units (RLUs) were measured on an Envision luminometer (PerkinElmer), and cell viability was expressed as a percentage of the untreated (100% viable) cells. IC50 values were determined using a four-parameter logistic equation over a 10-point dose response curve (GraphPad Prism). The maximum % kill was also determined for each test article as follows: 100—minimum percent viability.
# [2] = test system: NCI-H1975 cells; assay: In vitro cytotoxicity assay in tumor lines (CellTiter-Glo 2.0), NCI-H1975; assay type: cell-based, human; conditions: six days; for IC50: concentrations corrected for DAR
# Method: as §1, §2
# [3] = test system: C4-2/STEAP2 KO cells; assay: In vitro cytotoxicity assay in tumor lines (CellTiter-Glo 2.0), C4-2/STEAP2 KO; assay type: cell-based, human
# Method: The last well in each dilution series (untreated wells) served as blank controls containing only the media (ADCs) or media plus 0.2% DMSO (payloads) and was plotted as a continuation of the 3-fold serial dilution. […] Relative light units (RLUs) were measured on an Envision luminometer (PerkinElmer), and cell viability was expressed as a percentage of the untreated (100% viable) cells. IC50 values were determined using a four-parameter logistic equation over a 10-point dose response curve (GraphPad Prism).
# [4] = test system: SK-BR-3, Calu-3 and NCI-H1975 cells; assay: In vitro cytotoxicity assay, statements pooled over several tested lines (SK-BR-3, Calu-3, NCI-H1975); assay type: cell-based, human; conditions: all tested cells; units printed with the values (pM, nM)
# Method: as §1
# For the assay, Calu-3, SK-BR-3, NCI-H1975, C42, or C42/STEAP2 KO (knockout) cells were seeded at 1000 cells/well in poly-D-lysine coated white 96 well Biocoat plates (Corning #356693) in complete growth medium and grown overnight at 37° C. in 5% CO2. Three-fold serial dilutions of anti-HER2 ADCs or isotype control ADCs were prepared in dilution media (Optimem+0.1% BSA) and added to cells at final concentrations ranging from 100 nM to 0.015 nM (concentrations were corrected for the DAR (drug antibody ratio) and dosed based on the effective payload concentration). […] Relative light units (RLUs) were measured on an Envision luminometer (PerkinElmer), and cell viability was expressed as a percentage of the untreated (100% viable) cells. IC50 values were determined using a four-parameter logistic equation over a 10-point dose response curve (GraphPad Prism). The maximum % kill was also determined for each test article as follows: 100—minimum percent viability.
# [5] = test system: Calu-3 cells; assay type: cell-based, human; conditions: Table 27 (second experiment), six days
# Method: as §1, §2
# [6] = test system: SK-BR-3 cells; assay type: cell-based, human; conditions: six days; for IC50: concentrations corrected for DAR
# Method: as §1, §2
# [7] = test system: HCT-15; assay: cells; assay type: cell-based
# [8] = Homo sapiens, HCT-15, read-out: IC50 (nM) +v
# [9] = Homo sapiens, HCT-15, read-out: IC50 (nM) −v
smiles,measurement,setting,value
CC[C@@]1(O)C(=O)OCc2c1cc1n(c2=O)Cc2c-1nc1cc(F)c(C)c3c1c2[C@@H](NC(=O)CO)CC3 [Dxd],IC50,"[1]; C4-2 cells, 6 days",2.54 nM
same,maximum % kill,"[1]; C4-2 cells, 6 days",81.7%
same,C4-2 Max % Kill,"[1]; Table 28, six days",81.7%
same,NCI-H1975 Max % Kill,[2]; Table 26 (first experiment),95.9%
same,IC50,[2]; Table 26 (first experiment),8.91 nM
same,NCI-H1975 Max % Kill,[2]; Table 27 (second experiment),96.1%
same,IC50,[2]; Table 27 (second experiment),11.8 nM
same,IC50,"[3]; C4-2/STEAP2 KO cells, 6 days",3.43 nM
same,C4-2/STEAP2 KO Max % Kill,"[3]; Table 28, six days",88.9%
same,IC50,[4],787 to 11800 pM
same,Calu-3 Max % Kill,[5],96.3%
same,IC50,[5]; concentrations corrected for DAR,2.14 nM
same,SK-BR-3 Max % Kill,[6]; Table 26 (first experiment),97.1%
same,IC50,[6]; Table 26 (first experiment),0.787 nM
same,SK-BR-3 Max % Kill,[6]; Table 27 (second experiment),98.2%
same,IC50,[6]; Table 27 (second experiment),1.56 nM
CC[C@@]1(O)C(=O)OCc2c1cc1n(c2=O)Cc2c-1nc1cc(F)c(C)c3c1c2[C@@H](NC(=O)COCNC(=O)CN)CC3 [P3],Ratio to MMAE +v,"[7]; HCT-15, with verapamil",23.426x
same,Ratio to MMAE −v,"[7]; HCT-15, without verapamil",3.011x
same,IC50,[7]; [8],22.2 nM
same,IC50,[7]; [9],44.9 nM
CC[C@H](C)[C@@H]([C@@H](CC(=O)N1CCC[C@H]1[C@H](OC)[C@@H](C)C(=O)N[C@H](C)[C@@H](O)c1ccccc1)OC)N(C)C(=O)[C@@H](NC(=O)[C@@H](NC)C(C)C)C(C)C [MMAE] (H-[NMeV]V[Dil][Dolaproine]-X1),Ratio to MMAE +v,"[7]; HCT-15, with verapamil",1x
same,IC50,"[7]; HCT-15, with verapamil, read-out: IC50 (nM) +v",0.946 nM
same,Ratio to MMAE −v,"[7]; HCT-15, without verapamil",1x
same,IC50,"[7]; HCT-15, without verapamil, read-out: IC50 (nM) −v",14.8 nM
"CC[C@@]1(O)C(=O)OCc2c1cc1n(c2=O)Cc2c-1nc1cc(F)c(C)c3c1c2[C@@H](NC(=O)CO)CC3 [P2, Dxd]",IC50,[7]; [8],2.65 nM
same,IC50,[7]; [9],7 nM
"CC[C@@]1(O)C(=O)OCc2c1cc1n(c2=O)Cc2c-1nc1cc(F)c(C)c3c1c2[C@@H](N)CC3 [P1, Exatecan]",Ratio to MMAE +v,"[7]; HCT-15, with verapamil",1.833x
same,Ratio to MMAE −v,"[7]; HCT-15, without verapamil",0.087x
same,IC50,"[7]; Homo sapiens, HCT-15, with verapamil, read-out: IC50 (nM) +v",1.73 nM
same,IC50,"[7]; Homo sapiens, HCT-15, without verapamil, read-out: IC50 (nM) −v",1.29 nM

# Reference: patent publication US12605459B2, “Protein-drug conjugates comprising camptothecin analogs and methods of use thereof” (priority 2020, dated 2026)
